Test results: paper PMC12293521 (Current Issues in Molecular Biology, 2025)

Legend:
[1] = ABTS radical-scavenging assay; settings: mean ± SD
Method: The ABTS assay was determined according to Elbouzidi et al., with some modifications. The stock solutions included 7.4 mM ABTS and 2.6 mM potassium persulfate. ABTS radical cation was prepared by mixing the two stock solutions in equal quantities and allowed to stand for 16 h at room temperature in the dark. And then, ABTS radical solution was adjusted with phosphate-buffered saline (pH 7.4) to an absorbance of 0.7–0.8 at 734 nm. For this assay, 190 μL of ABTS radical solution was mixed with 10 μL of each test sample solution in 96-well plates. After 60 min, the decrease of absorbance was measured at 734 nm using a microplate reader (Thermo Fisher Scientific Inc., Waltham, MA, USA). The standard curve was linear between 0.025 and 0.9 mM Trolox. […] Additional dilution was needed if the ABTS value measured was over the linear range of the standard curve.

[2] = Ferric-reducing antioxidant power (FRAP) assay; settings: concentration for 50% of maximal ferric-reducing capacity; mean ± SD, triplicate
Method: The antioxidant capacity of the tested compounds was evaluated using the ferric-reducing antioxidant power (FRAP) assay, based on the reduction of ferric-tripyridyltriazine (Fe^3+-TPTZ) complex to its ferrous form (Fe^2+), resulting in a blue-colored product with a maximum absorbance at 593 nm. The assay was performed according to the modified method of Benzie and Strain [13], with modifications for microplate format and adjusted concentration ranges according to Rodrigues et al.. The FRAP working solution was freshly prepared by mixing 300 mM acetate buffer (pH 3.6), 10 mM TPTZ in 40 mM HCl, and 20 mM FeCl3·6H2O in a 10:1:1 volume ratio. The mixture was warmed to 37 °C before use to ensure optimal reaction conditions. For each reaction, 180 µL of the freshly prepared FRAP reagent was added to a well of a 96-well microplate, followed by 20 µL of the test compound at different concentrations (1–200 µg/mL) prepared in methanol. The mixture was incubated at 37 °C for 30 min. The increase in absorbance was measured at 593 nm using a microplate reader. […] All measurements were performed in triplicate and presented as the mean ± standard deviation.

[3] = Cupric ion-reducing antioxidant capacity (CUPRAC) assay; settings: concentration for 50% of maximal cupric-reducing activity; mean ± SD, triplicate
Method: The total antioxidant capacity of the tested monoterpenes was also assessed using the Cupric ion-reducing antioxidant capacity (CUPRAC) assay, which measures the ability of antioxidants to reduce the Cu^2+-neocuproine complex to the stable-colored Cu^+-neocuproine chelate, absorbing at 450 nm. The assay was carried out following the protocol provided by the CUPRAC assay kit (Bioquochem, Asturias, Spain), with slight modifications to accommodate the tested compounds according to Salem et al.. The CUPRAC working solution consisted of a mixture of copper (II) chloride (10 mM), neocuproine (7.5 mM), and ammonium acetate buffer (1 M, pH 7.0) in a 1:1:1 volume ratio. For the assay, 40 µL of each test solution (prepared in methanol at concentrations ranging from 1 to 200 µg/mL) was added to 200 µL of the CUPRAC working solution in a well of a 96-well plate. The plate was incubated at room temperature for 30 min in the dark to allow full color development. The absorbance was then measured at 450 nm using a microplate spectrophotometer (Thermo Fisher Scientific Inc., Waltham, MA, USA). […] All tests were conducted in triplicate, and results are presented as mean ± SD.

[4] = molecular target: T1, α-amylase from porcine pancreas (Sus scrofa, UniProt P00690); experiment: α-amylase inhibition assay (CNPG3 substrate); assay type: biochemical; settings: experimental; means ± SD of three independent replicates; read-out: AAI IC50 (α-amylase inhibition) (converted)
T1 construct: purchased Sigma Aldrich; host or cells: porcine pancreas
T1 sequence (P00690 16-511): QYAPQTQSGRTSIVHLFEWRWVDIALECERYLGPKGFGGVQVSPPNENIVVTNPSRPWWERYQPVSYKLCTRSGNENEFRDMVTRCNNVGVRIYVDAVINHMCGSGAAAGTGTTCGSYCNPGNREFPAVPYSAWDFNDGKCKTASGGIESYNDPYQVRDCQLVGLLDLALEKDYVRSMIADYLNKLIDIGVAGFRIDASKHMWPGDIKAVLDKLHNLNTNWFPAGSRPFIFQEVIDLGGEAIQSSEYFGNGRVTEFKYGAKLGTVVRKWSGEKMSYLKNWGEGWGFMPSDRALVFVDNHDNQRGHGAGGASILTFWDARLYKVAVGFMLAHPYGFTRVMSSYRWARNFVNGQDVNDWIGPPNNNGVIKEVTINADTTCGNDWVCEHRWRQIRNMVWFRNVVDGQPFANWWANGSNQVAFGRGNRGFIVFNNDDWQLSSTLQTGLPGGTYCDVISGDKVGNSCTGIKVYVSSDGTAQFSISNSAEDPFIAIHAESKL
Method: (§1) Aldose Reductase Inhibitor Screening Kit (Biovision, Milpitas, CA, USA) was used for the aldose reductase inhibition assay.
A pre-incubation mixture was prepared which contained 40 mM phosphate buffer (pH 6.9) together with different concentrations (1, 5, 10, 50, 100, 200 µg/mL) of the compounds. A 0.2 U of α-amylase enzyme was added to this mixture, and the plate was then incubated for 15 min at 37 °C. Then, 2-chloro-4-nitrophenyl maltotrioside (CNPG3) substrate was added, where the final concentration was 0.9 µmole/mL. […] A control which was devoid of the compounds was also run in parallel.

[5] = molecular target: α-glucosidase enzyme from Saccharomyces cerevisiae; experiment: α-glucosidase inhibition assay (PNP-G substrate); assay type: biochemical; settings: experimental; means ± SD of three independent replicates
Method: as §1
The activity of the compounds was assessed spectrophotometrically according to Li et al., with slight modifications. In a volume of 100 µL of 40 mM phosphate buffer (pH 6.9), different concentrations (1, 5, 10, 50, 100, 200 µg/mL) of the compounds were prepared. The tested samples were added to a reaction mixture in a 96-well microplate containing 20 µL of the phosphate buffer and 20 µL of 5 mM p-nitrophenyl α -D-glucopyranoside (PNP-G) in the buffer. […] The IC50 for test compounds as well as the standard was calculated and presented.

[6] = molecular target: T2, porcine pancreatic lipase (Sus scrofa, UniProt P00591); experiment: porcine pancreatic lipase inhibition assay (PNPB substrate); assay type: biochemical; settings: experimental; means ± SD of three independent replicates; read-out: LIP IC50 (lipase inhibition) (converted)
T2 construct: purchased Sigma Aldrich
T2 sequence (P00591 1-450): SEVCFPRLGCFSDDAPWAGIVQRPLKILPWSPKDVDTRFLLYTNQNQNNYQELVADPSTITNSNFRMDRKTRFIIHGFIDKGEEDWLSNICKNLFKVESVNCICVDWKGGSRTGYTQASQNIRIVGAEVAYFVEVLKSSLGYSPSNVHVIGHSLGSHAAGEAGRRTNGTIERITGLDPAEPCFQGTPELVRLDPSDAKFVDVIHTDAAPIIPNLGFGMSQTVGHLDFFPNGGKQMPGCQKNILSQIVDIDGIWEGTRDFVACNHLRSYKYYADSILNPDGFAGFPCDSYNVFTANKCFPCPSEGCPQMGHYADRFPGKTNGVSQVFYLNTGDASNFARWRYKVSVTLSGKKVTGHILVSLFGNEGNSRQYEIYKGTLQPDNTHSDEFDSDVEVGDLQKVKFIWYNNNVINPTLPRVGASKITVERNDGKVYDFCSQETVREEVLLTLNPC
Method: as §1
The porcine pancreatic lipase inhibition assay was utilized in this work, with modifications made based on a previous study. A stock solution of each compound at 1 mg/mL in 10% DMSO was used to prepare […] with concentrations 1, 5, 10, 50, 100, 200 µg/mL by means of dilution with methanol. Just before usage, the pancreatic lipase enzyme was freshly produced as a 1 mg/mL stock solution. […] In individual test tubes, 0.1 mL of porcine pancreatic lipase (1 mg/mL) was mixed with 0.2 mL of each compound concentration. To achieve a final volume of 1 mL, the Tri-HCl solution (pH 7.4) was added, and the mixtures were incubated at 25 °C for 15 min. Following the incubation, 0.1 mL of PNPB solution was introduced to each test tube. The mixtures were once again incubated for 30 min at 37 °C. […] All tests were conducted in triplicate, and the inhibition was calculated as per Equation (1).(1) %Lipase Inhibition=AB−AE/AB×100 where AB is the recorded absorbance of the blank solution, and AE is the recorded absorbance of the compound’s solution.

aldose reductase = molecular target: T3, aldose reductase (Homo sapiens, UniProt P15121); experiment: aldose reductase inhibition assay (Aldose Reductase Inhibitor Screening Kit); assay type: biochemical; settings: experimental; means ± SD of three independent replicates; read-out: ALR IC50 (aldose reductase inhibition) (converted)
T3 construct: purchased Biovision, Milpitas, CA, USA
Method: Aldose Reductase Inhibitor Screening Kit (Biovision, Milpitas, CA, USA) was used for the aldose reductase inhibition assay. Determination of the aldose reductase inhibitory effectiveness of the investigated compounds was performed kinetically using the Aldose Reductase Inhibitor Screening Kit (Biovision, Milpitas, CA, USA), according to the manufacturer's protocol. The decrease in the absorption of NADPH at 340 nm was measured in a mixture containing NADPH, the enzyme, and its substrate, […], in addition to test samples [21]. […] After incubation, 40 μL of enzyme substrate in assay buffer was added, and the absorbance was measured at 340 nm kinetically for 60-90 min at 37 °C. A background control free from the enzyme was run and subtracted from the readings. The IC50 was calculated and presented for the samples and the standard.

SMILES | ABTS IC50 [1] | FRAP EC50 [2] | IC50 [4] | AGI IC50 (α-glucosidase inhibition) [5] | IC50 [6] | IC50 (aldose reductase) | CUPRAC IC50 [3]
C=CCc1ccc(O)c(OC)c1 [Eugenol] | 19.42 ± 0.58 µg/mL | 78.55 ± 8.74 µg/mL | 339 µM | 84.93 ± 6.14 µg/mL | 388 µM | 241 µM | 39.53 ± 2.83 µg/mL
O=C1O[C@H]([C@@H](O)CO)C(O)=C1O [AA, ascorbic acid, reference compound] | 136.78 ± 5.97 µg/mL | 56.92 ± 2.99 µg/mL |  |  |  |  | 

More lines, main results first:

ABTS IC50 [1] | FRAP EC50 [2] | IC50 [4] | AGI IC50 (α-glucosidase inhibition) [5] | IC50 [6] | IC50 (aldose reductase) | SMILES | CUPRAC IC50 [3]
153.55 ± 9.65 µg/mL | 63.88 ± 4.83 µg/mL |  |  |  |  | Cc1cc(C(C)(C)C)c(O)c(C(C)(C)C)c1 [BHT, butylated hydroxytoluene, reference compound] | 
476.49 ± 19.93 µg/mL | 389.01 ± 9.53 µg/mL | 1740 µM | 340.42 ± 23.19 µg/mL | 392 µM | 899 µM | CC1=CCC(C(C)(C)O)CC1 (stereo not drawn) [Terpineol, α-terpineol] | 
755.82 ± 67.30 µg/mL | 1459.83 ± 39.96 µg/mL | 2340 µM | 484.95 ± 17.65 µg/mL | 3540 µM | 1710 µM | CC12CCC(CC1=O)C2(C)C (centres unmarked) [Camphor] | 
